# Results as given in patent publication US20030118631A1, “Anti-microbial soluble hemostatic gauze and method of making same” (priority 2001, published 2003).
# What was measured:
# Pseudomonas Aeruginosa = test: Agar dilution minimum inhibition concentration, aerobic growth base; format: cell-based; details: 37° C., 48 hours, mg antibiotic per liter
# Clostridium Perfringens = format: cell-based; details: anaerobic (nitrogen), 37° C., 48 hours, mg antibiotic per liter
# Bacillus Coli Similis = test: Agar dilution minimum inhibition concentration, aerobic growth base; format: cell-based; details: 37° C., 48 hours, mg antibiotic per liter
# Bacteroides Fragilis = test: Agar dilution minimum inhibition concentration, anaerobic growth base; format: cell-based; details: anaerobic (nitrogen), 37° C., 48 hours, mg antibiotic per liter
# Klebsiella Pneumoniae = test: Agar dilution minimum inhibition concentration, aerobic growth base; format: cell-based; details: 37° C., 48 hours, mg antibiotic per liter
# Propionibacterium = test: Agar dilution minimum inhibition concentration, anaerobic growth base; format: cell-based; details: anaerobic (nitrogen), 37° C., 48 hours, mg antibiotic per liter
# Staphylococcus Aureus = test: Agar dilution minimum inhibition concentration, aerobic growth base; format: cell-based; details: 37° C., 48 hours, mg antibiotic per liter
# [1] = tested on: Staphylococcus Epidermidis; test: as above; format: cell-based; details: 37° C., 48 hours, mg antibiotic per liter
# Citrobacter Sp. = test: as above; format: cell-based; details: 37° C., 48 hours, mg antibiotic per liter
# Streptococcus Gamma = test: as above; format: cell-based; details: 37° C., 48 hours, mg antibiotic per liter
# Bifidobacterium Longum = test: Agar dilution minimum inhibition concentration, anaerobic growth base; format: cell-based; details: anaerobic (nitrogen), 37° C., 48 hours, mg antibiotic per liter
# Fusobacterium Nuleatum = test: as above; format: cell-based; details: anaerobic (nitrogen), 37° C., 48 hours, mg antibiotic per liter
# Serratia = test: Agar dilution minimum inhibition concentration, aerobic growth base; format: cell-based; details: 37° C., 48 hours, mg antibiotic per liter
# Streptococcus Psittac = test: as above; format: cell-based; details: 37° C., 48 hours, mg antibiotic per liter
# [2] = tested on: Bacillus Canalis Capsulatus; test: as above; format: cell-based; details: 37° C., 48 hours, mg antibiotic per liter
# Streptococcus Faccalis = test: as above; format: cell-based; details: 37° C., 48 hours, mg antibiotic per liter
# [3] = tested on: Bifidobacterium Adolescents; test: Agar dilution minimum inhibition concentration, anaerobic growth base; format: cell-based; details: anaerobic (nitrogen), 37° C., 48 hours, mg antibiotic per liter
# Bacillus Pyocyaneus = test: Agar dilution minimum inhibition concentration, aerobic growth base; format: cell-based; details: 37° C., 48 hours, mg antibiotic per liter
# Lactobacillus Plantarum = test: Agar dilution minimum inhibition concentration, anaerobic growth base; format: cell-based; details: anaerobic (nitrogen), 37° C., 48 hours, mg antibiotic per liter
# Bacteroides Ovatus = test: as above; format: cell-based; details: anaerobic (nitrogen), 37° C., 48 hours, mg antibiotic per liter
# Bifidobacterium Infantis = test: as above; format: cell-based; details: anaerobic (nitrogen), 37° C., 48 hours, mg antibiotic per liter
# [4] = tested on: Lactobacillus Acidophilus; test: as above; format: cell-based; details: anaerobic (nitrogen), 37° C., 48 hours, mg antibiotic per liter
# Actinomyces = details: anaerobic (nitrogen), 37° C., 48 hours, mg antibiotic per liter
# Protocol: (§1) To measure the effectiveness of the our antimicrobial gauze, we tested an antibiotic containing soluble hemostatic gauze material made in accordance with the present invention against the same antibiotic alone. We prepared a growth base for anaeroboic bacteria by mixing 20 grams glucose, 5 grams NaCl, 10 grams protein base, 5 grams yeast powder, 3 grams soluble starch, 20 grams agar and 0.4 grams amino acid. These materials were dissolved in 150 ml distilled water to form a liver paste solution. Then we added 1000 ml. water, adjusted the Ph to 7.2 and autoclaved the material. We prepared another growth base for aerobic bacteria by combining 10 grams beef paste, 10 grams protein base, 3 grams soluble starch, 5 grams NaCl and 20 grams agar in distilled water. Then we added 1000 ml. water, adjusted the Ph to 7.2 and autoclaved the material. We also prepared a series of solutions of the antibiotic chlindamycin in a Ph7.8 phospharese solution. The solutions were: 1280 mg antibiotic/L, 640 mg/L, 320 mg/l, 160 mg/L, 80 mg/L, 40 mg/L, 20 mg/l, 10 mg/L, 5 mg/L, 2.5 mg/L and 1.25 mg/L. We then added 2 ml of each of the diluted antibiotic solutions into a petri dish. Next we added 18 ml of warm (50° C.) autoclaved bacteria growth base prepared as described above for the type of bacteria (anaerobic or aerobic) to be tested to petri dishes to make growth plates. At that point we had growth plates with final antibiotic concentrations of 128, 64, 32, 16, 8, 4, 2, 1, 0.5, 0.25, and 0.125 mg antibiotic per liter.
# (§2) We prepared a second series of growth bases with anti-microbial soluble hemostatic gauze to which the antibiotic chlindamycin had been linked. The gauze was prepared in accordance with the following steps.
# Peptostrepococcus = details: anaerobic (nitrogen), 37° C., 48 hours, mg antibiotic per liter
# Protocol: as §1, §2
# Bacteroides Vulgatus = details: anaerobic (nitrogen), 37° C., 48 hours, mg antibiotic per liter
# Protocol: as §1, §2
# Bacillus Coli Immobilis = test: Agar dilution minimum inhibition concentration, aerobic growth base; format: cell-based; details: 37° C., 48 hours, mg antibiotic per liter
smiles,measurement,setting,value
"CCC[C@@H]1C[C@@H](C(=O)N[C@@H]([C@H]2O[C@H](SC)[C@H](O)[C@@H](O)[C@H]2O)[C@H](C)Cl)N(C)C1 [Chlindamycin, chlindamycin]",Minimum Inhibited Concentration,Pseudomonas Aeruginosa,128 mg/L
same,Minimum Inhibited Concentration,Clostridium Perfringens,0.125 mg/L
same,Minimum Inhibited Concentration,Bacillus Coli Similis,128 mg/L
same,Minimum Inhibited Concentration,Bacteroides Fragilis,0.5 mg/L
same,Minimum Inhibited Concentration,Klebsiella Pneumoniae,32 mg/L
same,Minimum Inhibited Concentration,Propionibacterium,0.25 mg/L
same,Minimum Inhibited Concentration,Staphylococcus Aureus,1 mg/L
same,Minimum Inhibited Concentration,[1],0.5 mg/L
same,Minimum Inhibited Concentration,Citrobacter Sp.,64 mg/L
same,Minimum Inhibited Concentration,Streptococcus Gamma,1 mg/L
same,Minimum Inhibited Concentration,Bifidobacterium Longum,64 mg/L
same,Minimum Inhibited Concentration,Fusobacterium Nuleatum,4 mg/L
same,Minimum Inhibited Concentration,Serratia,32 mg/L
same,Minimum Inhibited Concentration,Streptococcus Psittac,1 mg/L
same,Minimum Inhibited Concentration,[2],64 mg/L
same,Minimum Inhibited Concentration,Streptococcus Faccalis,1 mg/L
same,Minimum Inhibited Concentration,[3],16 mg/L
same,Minimum Inhibited Concentration,Bacillus Pyocyaneus,128 mg/L
same,Minimum Inhibited Concentration,Lactobacillus Plantarum,64 mg/L
same,Minimum Inhibited Concentration,Bacteroides Ovatus,2 mg/L
same,Minimum Inhibited Concentration,Bifidobacterium Infantis,64 mg/L
same,Minimum Inhibited Concentration,[4],32 mg/L
same,Minimum Inhibited Concentration,Actinomyces,0.125 mg/L
same,Minimum Inhibited Concentration,Peptostrepococcus,0.125 mg/L
same,Minimum Inhibited Concentration,Bacteroides Vulgatus,0.125 mg/L
same,Minimum Inhibited Concentration,Bacillus Coli Immobilis,128 mg/L
